Patent publication EP0377642B1, “HERBICIDES FOR WEED CONTROL IN RICE” (E.I. DU PONT DE NEMOURS AND COMPANY, priority 1987, dated 1989)

Key:
Type in all cases: in vivo
Cuperus iria = assay: Herbicidal efficacy with Bensulfuron methyl and 2,4-D in Thailand (Table 20); conditions: 1500 GAI/HA; 14 days after treatment
From the text: (§1) Methyl 2-[[[[(4-methoxy-6-methyl-1,3,5-triazin-2-yl)amino]carbonyl]amino]sulfonyl]benzoate (Compound 1) and mixtures thereof with other compounds were applied as a spray (using a hand sprayer) to rice (either transplanted or direct seeded) in several rice growing areas in Southeast Asia and in the U.S. Tables 1-28 contain the results of these tests and clearly exemplify the utility of this invention. The details of each application are included in the appropriate table. [drawing 2]

rice [1] = assay: as above; conditions: 1500 GAI/HA; 14 days after treatment
From the text: as §1

Ludwigia linifolia [2] = assay: as above; conditions: 1500 GAI/HA; 14 days after treatment
From the text: as §1

FIMBRISTYLIS MILIACEA [3] = assay: as above; conditions: 1500 GAI/HA; 14 days after treatment
From the text: as §1

Sphenoclea zeylanica [4] = assay: as above; conditions: 1500 GAI/HA; 14 days after treatment
From the text: as §1

Masilea crenata = assay: Herbicidal efficacy with 2,4-D in Malaysia (Table 21); conditions: 1000 GAI/HA; 42 days after treatment
From the text: as §1

Scirpus spp. = assay: as above; conditions: 1000 GAI/HA; 42 days after treatment
From the text: as §1

FIMBRISTYLIS MILIACEA [5] = assay: as above; conditions: 1000 GAI/HA; 42 days after treatment
From the text: as §1

Ludwigia adscendens = assay: as above; conditions: 1000 GAI/HA; 42 days after treatment
From the text: as §1

Saggittaria guayanensis = assay: as above; conditions: 1000 GAI/HA; 42 days after treatment
From the text: as §1

Monochoria vaginalis [6] = assay: as above; conditions: 1000 GAI/HA; 42 days after treatment
From the text: as §1

rice [7] = assay: Herbicidal efficacy with Bensulfuron methyl and 2,4-D in Thailand (Table 18); conditions: 1500 GAI/HA; 13 days after treatment
From the text: as §1

Ludwigia linifolia [8] = assay: as above; conditions: 1500 GAI/HA; 13 days after treatment
From the text: as §1

Sphenoclea zeylanica [9] = assay: as above; conditions: 1500 GAI/HA; 13 days after treatment
From the text: as §1

Cyperus difformis [10] = assay: as above; conditions: 1500 GAI/HA; 13 days after treatment
From the text: as §1

Marsilea crenata = assay: Herbicidal efficacy alone and with 2,4-D in Malaysia, applied 30 days after seeding (Table 8); conditions: 22 days after treatment
From the text: as §1

Scirpus grossus = assay: as above; conditions: 22 days after treatment
From the text: as §1

FIMBRISTYLIS MILIACEA [11] = assay: as above; conditions: 22 days after treatment
From the text: as §1

Sphenoclea zeylanica [12] = assay: as above; conditions: 22 days after treatment
From the text: as §1

Monochoria vaginalis [13] = assay: as above; conditions: 22 days after treatment
From the text: as §1

Cyperus difformis [14] = assay: as above; conditions: 22 days after treatment
From the text: as §1

rice [15] = assay: Herbicidal efficacy with Bensulfuron methyl and 2,4-D in Thailand (Table 19); conditions: 1500 GAI/HA; 13 days after treatment
From the text: as §1

Ludwigia linifolia [16] = assay: as above; conditions: 1500 GAI/HA; 13 days after treatment
From the text: as §1

Cuperus difformis = assay: as above; conditions: 1500 GAI/HA; 13 days after treatment
From the text: as §1

Sphenoclea zeylanica [17] = assay: as above; conditions: 1500 GAI/HA; 13 days after treatment
From the text: as §1

O=C(O)COc1ccc(Cl)cc1Cl [2,4-D, 2,4-dichlorophenoxyacetic acid]
% CONTROL OR INJURY CI (Cuperus iria): 100% | % CONTROL OR INJURY RICE (rice [1]): 0% | % CONTROL OR INJURY LL (Ludwigia linifolia [2]): 100% | % CONTROL OR INJURY FM (FIMBRISTYLIS MILIACEA [3]): 100% | % CONTROL OR INJURY SZ (Sphenoclea zeylanica [4]): 33.3% | % CONTROL OR INJURY MC (Masilea crenata): 56% | % CONTROL OR INJURY SS (Scirpus spp.): 55% | % CONTROL OR INJURY FM (FIMBRISTYLIS MILIACEA [5]): 73% | % CONTROL OR INJURY LA (Ludwigia adscendens): 93% | % CONTROL OR INJURY SG (Saggittaria guayanensis): 74% | % CONTROL OR INJURY MV (Monochoria vaginalis [6]): 100% | % CONTROL OR INJURY RICE (rice [7]): 0% | % CONTROL OR INJURY LL (Ludwigia linifolia [8]): 100% | % CONTROL OR INJURY SZ (Sphenoclea zeylanica [9]): 90% | % CONTROL OR INJURY CD (Cyperus difformis [10]): 100% | % CONTROL MC (Marsilea crenata; 500 GAI/HA): 0% | % CONTROL MC (Marsilea crenata; 1000 GAI/HA): 0% | % CONTROL SG (Scirpus grossus; 500 GAI/HA): 50% | % CONTROL SG (Scirpus grossus; 1000 GAI/HA): 75% | % CONTROL FM (FIMBRISTYLIS MILIACEA [11]; 500 GAI/HA): 100% | % CONTROL FM (FIMBRISTYLIS MILIACEA [11]; 1000 GAI/HA): 100% | % CONTROL SZ (Sphenoclea zeylanica [12]; 500 GAI/HA): 100% | % CONTROL SZ (Sphenoclea zeylanica [12]; 1000 GAI/HA): 100% | % CONTROL MV (Monochoria vaginalis [13]; 500 GAI/HA): 90% | % CONTROL MV (Monochoria vaginalis [13]; 1000 GAI/HA): 100% | % CONTROL CD (Cyperus difformis [14]; 500 GAI/HA): 95% | % CONTROL CD (Cyperus difformis [14]; 1000 GAI/HA): 100% | % CONTROL OR INJURY RICE (rice [15]): 0% | % CONTROL OR INJURY LL (Ludwigia linifolia [16]): 97% | % CONTROL OR INJURY CD (Cuperus difformis): 100% | % CONTROL OR INJURY SZ (Sphenoclea zeylanica [17]): 86%
